Test system: NCI-H929 complex spheroids, viability % test/control
Assay: Anticancer human tumor NCI-H929 cell line growth inhibition [RAS];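 further: compound exposure lasted seven days before viability was read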;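 on viability, T/C: 100% = DMSO vehicle control viability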
Details: for IC50: curve of first compound; for viability, T/C: stronger effect = lower value
Method in brief: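 Agents were tested in combination matrices in half-log decrements from a top concentration at or near clinical Cmax (10 microM if undetermined). Targets were multi-cell spheroids of tumour lines plus HUVEC and MSC stromal cells.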

Work on `CC(Nc1ccc2c(c1)OCCn1cc(N3C(=O)OCC3C(F)F)nc1-2)C(N)=O` (configuration not stated) + C=CC(=O)N1CCN(c2nc(OCC3CCCN3C)nc3c(F)c(-c4nc(N)cc(C)c4C(F)(F)F)c(Cl)cc23)C(C)C1 yielded an IC50 (second compound 0.00316 µM) of over 10 µM, an IC50 (second compound 0.01 µM) of over 10 µM and an IC50 (second compound 0.0316 µM) of over 10 µM. For the same compound, the IC50 (second compound 0.1 µM) was over 10 µM, the IC50 (second compound 0.316 µM) was over 10 µM and the IC50 (second compound 1 µM) was 8.11 µM. For the same compound, the viability, T/C (second compound 0.00316 µM, first compound 0.0316 µM) was 99%, the viability, T/C (second compound 0.00316 µM, first compound 0.1 µM) was 103% and the viability, T/C (second compound 0.00316 µM, first compound 0.316 µM) was 112%. The viability, T/C (second compound 0.00316 µM, first compound 1 µM) was 107%, the viability, T/C (second compound 0.00316 µM, first compound 3.16 µM) was 110% and the viability, T/C (second compound 0.00316 µM, first compound 10 µM) was 61.1%. It also gave a viability, T/C (second compound 0.01 µM, first compound 0.0316 µM) of 94.8%, a viability, T/C (second compound 0.01 µM, first compound 0.1 µM) of 103% and a viability, T/C (second compound 0.01 µM, first compound 0.316 µM) of 107%. The viability, T/C (second compound 0.01 µM, first compound 1 µM) was 112%, the viability, T/C (second compound 0.01 µM, first compound 3.16 µM) was 102% and the viability, T/C (second compound 0.01 µM, first compound 10 µM) was 64.3%. For the same compound, the viability, T/C (second compound 0.0316 µM, first compound 0.0316 µM) was 98%, the viability, T/C (second compound 0.0316 µM, first compound 0.1 µM) was 106% and the viability, T/C (second compound 0.0316 µM, first compound 0.316 µM) was 111%. It also gave a viability, T/C (second compound 0.0316 µM, first compound 1 µM) of 114%, a viability, T/C (second compound 0.0316 µM, first compound 3.16 µM) of 112% and a viability, T/C (second compound 0.0316 µM, first compound 10 µM) of 64.6%. It also gave a viability, T/C (second compound 0.1 µM, first compound 0.0316 µM) of 97.8%, a viability, T/C (second compound 0.1 µM, first compound 0.1 µM) of 104% and a viability, T/C (second compound 0.1 µM, first compound 0.316 µM) of 113%. The viability, T/C (second compound 0.1 µM, first compound 1 µM) was 113%, the viability, T/C (second compound 0.1 µM, first compound 3.16 µM) was 113% and the viability, T/C (second compound 0.1 µM, first compound 10 µM) was 66.1%. It also gave a viability, T/C (second compound 0.316 µM, first compound 0.0316 µM) of 102%, a viability, T/C (second compound 0.316 µM, first compound 0.1 µM) of 107% and a viability, T/C (second compound 0.316 µM, first compound 0.316 µM) of 112%. The viability, T/C (second compound 0.316 µM, first compound 1 µM) was 112%, the viability, T/C (second compound 0.316 µM, first compound 3.16 µM) was 112% and the viability, T/C (second compound 0.316 µM, first compound 10 µM) was 77.5%. The viability, T/C (second compound 1 µM, first compound 0.0316 µM) was 103%, the viability, T/C (second compound 1 µM, first compound 0.1 µM) was 110% and the viability, T/C (second compound 1 µM, first compound 0.316 µM) was 114%. For the same compound, the viability, T/C (second compound 1 µM, first compound 1 µM) was 115%, the viability, T/C (second compound 1 µM, first compound 3.16 µM) was 110% and the viability, T/C (second compound 1 µM, first compound 10 µM) was 36.7%.

Source: PubChem BioAssay AID2060884 (Molecular Pharmacology Branch, DTP, NCI, 2025)
